What all share (type): biochemical
One assay addresses PKM1 (Homo sapiens, UniProt P14618). Nature of the assay: luminescent pyruvate kinase-luciferase coupled assay, PKM1 isoform. To be noted: same assay system as for PKM2. The protocol: (§1) Production of a luminescent signal based on the generation of ATP by pyruvate kinase was determined by using the ATP-dependent enzyme firefly luciferase. Three μL of substrate mix (at r.t.) in assay buffer (50 mM imidazole pH 7.2, 50 mM KCl, 7 mM MgCl2, 0.01% tween 20, 0.05% BSA) was dispensed into Kalypsys (San Diego, Calif., USA) white solid bottom 1,536 well microtiter plates using a bottle-valve solenoid-based dispenser (Kalypsys). The final concentrations of substrates in the assay were 0.1 mM ADP and 0.5 mM PEP. Twenty-three nL of compound in DMSO were delivered with a 1,536-pin array tool, and 1 μL of enzyme mix in assay buffer (final concentration, 0.1 nM pyruvate kinase, 50 mM imidazole pH 7.2, 0.05% BSA, 4° C.) was added. Microtiter plates were incubated at r.t. for 1 hour and 2 uL of luciferase detection mix (Kinase-Glo from Promega, Madison, Wis., USA) at 4° C. protected from light, was added and luminescence was read with a ViewLux (Perkin Elmer, Waltham, Mass., USA) using a 2 second exposure/plate (with 2× binning). The final concentration of DMSO was 0.5% and found not to affect the assay signal.
(§2) The same assay system was utilized to examine the activity of compound 4 and all related analogs versus PKL, PKM1 and PKR pyruvate kinase isoforms. No activity for any of the compounds were found against PKL, PKM1, or PKR.

The target in the next assay is PKR (Homo sapiens, UniProt P30613). As to the kind of experiment: luminescent pyruvate kinase-luciferase coupled assay, PKR isoform. Conditions: same assay system as for PKM2. The protocol:
as §1, §2

Another assay addresses PKL (Homo sapiens, UniProt P30613). Nature of the assay: luminescent pyruvate kinase-luciferase coupled assay, PKL isoform. Conditions: same assay system as for PKM2. The protocol:
as §1, §2

The target in the next assay is hPK, M2 (Homo sapiens, UniProt P14618). Nature of the assay: luminescent pyruvate kinase-luciferase coupled assay (qHTS). To be noted: for activation at 57 µM / hPK, M2 Max. Res.: % activation at 57 μM of compound; for activation at 57 µM: read-out: hPK, M2 Max. Res.; for Emax: read-out: Max. Res. The protocol:
AC50 values were determined utilizing the luminescent pyruvate kinase-luciferase coupled assay (Inglese, J. et al, Quantitative high-throughput screening: a titration-based approach that efficiently identifies biological activities in large chemical libraries. Proc. Natl. Acad. Sci. U.S.A. 2006, 103, 11473-11478).
Luminescent Pyruvate Kinase-Luciferase Coupled Assay.
as §1
Data was normalized for AC50 values to control columns containing uninhibited enzyme (n), and AC100 inhibition (i) according the following equation: Activation (%)=[(c−n)/(n−i)]*100 where c=compound, n=DMSO neutral, i=no enzyme control. A % activity of 100% is approximately a 2-fold increase over basal assay signal (% Activation by FBP was variable but averaged 100%). Monitoring of activation was accomplished using enzyme at 3× the final concentration.
All compounds were screened using a qHTS approach, where compounds are assayed using at least seven concentrations to generate concentration-response curves for every compounds. Briefly, qHTS uses an inter-plate dilution method where the first plate contains the highest concentration of a set of compounds in DMSO, while subsequent plates contain the same compounds in the same well locations, but at successive lower concentrations. Using the protocol outlined above, the rate was calculated as a plate throughput of 18 plates/hr or approximately 7 samples/sec on the Kalypsys robotic system which means that a 7 point CRC was obtained every second on the robotic system.
(qHTS replaces the single test concentration by a dilution series.)

[1] abbreviates: Table 1, 0.1 mM ADP, 0.5 mM PEP, mean of three replicate experiments, read-out: hPK, M2 AC50.
[2] abbreviates: Table 1, mean of three replicate experiments.
Setting [3] is: Table 2, mean of three replicate experiments.
Setting [4] is: Table 3, mean of three replicate experiments.
[5] abbreviates: Table 4, maximum response (activation).
[6] abbreviates: Table 4, 0.1 mM ADP, 0.5 mM PEP, read-out: AC50.
Where [7] appears, read: Table 3, 0.1 mM ADP, 0.5 mM PEP, mean of three replicate experiments, read-out: hPK, M2 AC50.
The mark [8] stands for this setting: Table 2, 0.1 mM ADP, 0.5 mM PEP, mean of three replicate experiments, read-out: hPK, M2 AC50.

Like-named read-outs stand apart in the source and are kept apart here.

Chain of hPK, M2 (P14618 whole entry): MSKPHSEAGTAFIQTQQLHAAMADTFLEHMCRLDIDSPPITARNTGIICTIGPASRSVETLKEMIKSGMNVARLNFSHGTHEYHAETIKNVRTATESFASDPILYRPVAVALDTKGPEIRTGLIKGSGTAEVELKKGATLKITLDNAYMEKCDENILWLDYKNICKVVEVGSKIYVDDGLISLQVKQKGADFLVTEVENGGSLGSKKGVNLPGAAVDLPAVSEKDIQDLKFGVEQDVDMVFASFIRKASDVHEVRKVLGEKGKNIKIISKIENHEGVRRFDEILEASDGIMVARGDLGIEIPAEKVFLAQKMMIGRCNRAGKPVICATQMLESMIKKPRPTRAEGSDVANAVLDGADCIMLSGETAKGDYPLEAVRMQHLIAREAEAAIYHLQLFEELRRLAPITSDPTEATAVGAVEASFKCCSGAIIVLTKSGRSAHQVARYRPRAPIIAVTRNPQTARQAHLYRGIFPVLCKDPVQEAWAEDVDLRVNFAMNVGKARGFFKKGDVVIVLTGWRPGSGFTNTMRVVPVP
Chain of PKL (P30613 1-543 isoform P30613-2): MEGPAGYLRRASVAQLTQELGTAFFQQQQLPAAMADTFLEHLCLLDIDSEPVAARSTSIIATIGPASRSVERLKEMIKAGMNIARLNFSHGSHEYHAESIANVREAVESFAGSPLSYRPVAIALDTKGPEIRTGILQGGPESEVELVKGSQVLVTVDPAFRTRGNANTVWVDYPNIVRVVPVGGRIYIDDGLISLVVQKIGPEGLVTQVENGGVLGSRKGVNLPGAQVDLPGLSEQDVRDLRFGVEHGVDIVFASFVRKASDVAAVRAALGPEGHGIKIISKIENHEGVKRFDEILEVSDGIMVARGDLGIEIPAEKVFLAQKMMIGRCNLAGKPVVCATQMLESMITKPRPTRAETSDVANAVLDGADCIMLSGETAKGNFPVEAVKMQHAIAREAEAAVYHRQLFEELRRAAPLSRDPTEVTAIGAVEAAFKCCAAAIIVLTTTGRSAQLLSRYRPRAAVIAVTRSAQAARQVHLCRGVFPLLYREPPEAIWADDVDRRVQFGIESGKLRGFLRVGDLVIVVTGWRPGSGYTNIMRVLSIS
Chain of PKM1 (P14618 1-531 isoform P14618-2): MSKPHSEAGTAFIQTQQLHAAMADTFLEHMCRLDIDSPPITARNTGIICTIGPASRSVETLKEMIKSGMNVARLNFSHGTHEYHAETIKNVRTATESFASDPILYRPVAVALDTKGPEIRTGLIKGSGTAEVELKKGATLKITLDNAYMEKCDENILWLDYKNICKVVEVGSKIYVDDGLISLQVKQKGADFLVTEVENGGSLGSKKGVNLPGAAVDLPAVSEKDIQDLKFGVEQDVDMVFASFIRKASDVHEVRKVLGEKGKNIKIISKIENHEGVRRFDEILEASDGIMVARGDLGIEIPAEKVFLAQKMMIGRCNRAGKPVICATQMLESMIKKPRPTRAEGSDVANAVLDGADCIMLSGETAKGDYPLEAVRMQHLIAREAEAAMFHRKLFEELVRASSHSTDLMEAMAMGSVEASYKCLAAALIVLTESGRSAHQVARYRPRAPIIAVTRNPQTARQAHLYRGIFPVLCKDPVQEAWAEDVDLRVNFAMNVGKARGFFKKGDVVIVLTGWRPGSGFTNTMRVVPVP
Chain of PKR (P30613 whole entry, canonical isoform): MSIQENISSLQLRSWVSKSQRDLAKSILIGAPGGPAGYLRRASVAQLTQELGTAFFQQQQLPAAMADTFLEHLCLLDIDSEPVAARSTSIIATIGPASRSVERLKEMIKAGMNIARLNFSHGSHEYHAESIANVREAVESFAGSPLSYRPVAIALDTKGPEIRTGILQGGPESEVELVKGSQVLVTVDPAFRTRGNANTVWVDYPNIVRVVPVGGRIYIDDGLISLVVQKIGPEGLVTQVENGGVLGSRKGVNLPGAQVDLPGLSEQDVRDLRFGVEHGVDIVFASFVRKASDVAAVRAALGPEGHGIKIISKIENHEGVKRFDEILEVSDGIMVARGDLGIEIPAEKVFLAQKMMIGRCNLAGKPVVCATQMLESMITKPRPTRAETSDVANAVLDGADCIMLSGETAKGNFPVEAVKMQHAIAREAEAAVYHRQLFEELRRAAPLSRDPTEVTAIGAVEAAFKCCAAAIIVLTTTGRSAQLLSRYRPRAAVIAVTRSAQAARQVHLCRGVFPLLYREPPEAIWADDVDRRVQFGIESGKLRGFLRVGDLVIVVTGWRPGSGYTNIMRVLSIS

For the compound `Cc1ccc(NS(=O)(=O)c2ccc3c(c2)CCC(=O)N3)cc1C` [Compound 4, N-(3,4-dimethylphenyl)-2-oxo-1,2,3,4-tetrahydroquinoline-6-sulfonamide], the “activity against PKM1” value at PKM1 is listed as “No activity”. Further, the “activity against PKR” value on PKR is “No activity”. The “activity against PKL” value at PKL is listed as “No activity”. Also, the half-maximal activity concentration (AC50) (commonly the concentration at which the activity in the assay is half-maximal) at hPK, M2 (setting [1]) came to 0.65 µM. Further, the activation at 57 µM at hPK, M2 (setting [2]) worked out at 104%. The “hPK, M2 Max. Res.” value at hPK, M2 (setting [3]) was found to be 104%; on hPK, M2 (setting [4]), 104%.
For the compound `Cc1ccc(N(C)S(=O)(=O)c2ccc3c(c2)CCC(=O)N3)cc1C` [Compound 41, N-(3,4-dimethylphenyl)-N-methyl-2-oxo-1,2,3,4-tetrahydroquinoline-6-sulfonamide], at hPK, M2 (setting [5]), the “Max. Res.” value is 36.00. Moreover, the AC50 on hPK, M2 (linkage variants of compound 4, read-out: AC50) worked out at 23.1 µM. For the same compound, the Emax at hPK, M2 (linkage variants of compound 4) is 36%.
Regarding `Cc1ccc(NS(=O)(=O)c2cc3c(cc2N2CCC(N(C)C)C2)NC(=O)CC3)cc1C` (stereo not drawn) [Compound 63, 7-(3-(dimethylamino)pyrrolidin-1-yl)-N-(3,4-dimethylphenyl)-2-oxo-1,2,3,4-tetrahydroquinoline-6-sulfonamide], on hPK, M2 (setting [6]), the concentration at half-maximal activity (AC50) was 8.19 µM. Moreover, the Emax on hPK, M2 (setting [5]) came out at 102%.
On the same counts, the results for `Cc1ccc(NS(=O)(=O)c2cc3c(cc2NC(C)C)NC(=O)CC3)cc1C` [Compound 65, N-(3,4-dimethylphenyl)-7-(isopropylamino)-2-oxo-1,2,3,4-tetrahydroquinoline-6-sulfonamide] are 0.32 µM and 106%.
On to `Cc1ccc(NS(=O)(=O)c2cc3c(cc2Br)NC(=O)CO3)cc1C` [Compound 38, 6-bromo-N-(3,4-dimethylphenyl)-3-oxo-3,4-dihydro-2H-benzo[b][1,4]oxazine-7-sulfonamide], for which, at hPK, M2 (setting [7]), the AC50 was 18 µM. For the same compound, on hPK, M2 (setting [4]), the activation at 57 µM was 103%.
`Cc1ccc(NS(=O)(=O)c2cc3c(cc2N(C)CCN(C)C)NC(=O)CC3)cc1C` [Compound 61, 7-((2-(dimethylamino)ethyl)(methyl)amino)-N-(3,4-dimethylphenyl)-2-oxo-1,2,3,4-tetrahydroquinoline-6-sulfonamide]: the half-maximal activity concentration (AC50) at hPK, M2 (setting [6]) came out at 5.84 µM. The Emax at hPK, M2 (setting [5]) came to 70.5%.
`Cc1cc(NS(=O)(=O)c2cc3c(cc2F)NC(=O)CC3)ccc1Cl` [Compound 56, N-(4-chloro-3-methylphenyl)-7-fluoro-2-oxo-1,2,3,4-tetrahydroquinoline-6-sulfonamide]: on hPK, M2 (setting [6]), the AC50 was found to be 0.82 µM. Also, at hPK, M2 (setting [5]), the Emax came out at 94.2%.
In the case of `Cc1ccc(NS(=O)(=O)c2cc3c(cc2F)NC(=O)CC3)cc1C` [Compound 31, N-(3,4-dimethylphenyl)-7-fluoro-2-oxo-1,2,3,4-tetrahydroquinoline-6-sulfonamide], on hPK, M2 (setting [7]), the AC50 came to 0.92 µM. Also, the activation at 57 µM on hPK, M2 (setting [4]) was 115%.
As to `CC(=O)N1CCc2cc(S(=O)(=O)Nc3ccc(C)c(C)c3)ccc21` [Compound 11, 1-acetyl-N-(3,4-dimethylphenyl)indoline-5-sulfonamide], the AC50 at hPK, M2 (setting [1]) was 1.8 µM. In addition, the activation at 57 µM on hPK, M2 (setting [2]) came out at 65%.
For `O=C1CCc2cc(S(=O)(=O)Nc3cccc(C(F)(F)F)c3)ccc2N1` [Compound 17, 2-oxo-N-(3-(trifluoromethyl)phenyl)-1,2,3,4-tetrahydroquinoline-6-sulfonamide], the concentration at half-maximal activity (AC50) on hPK, M2 (setting [8]) came out at 13 µM. In addition, the activation at 57 µM at hPK, M2 (setting [3]) was determined as 96%.
As for `Cc1ccc(NS(=O)(=O)c2cc3c(cc2N(C)C)CCC(=O)N3)cc1C` [Compound 36, 6-(dimethylamino)-N-(3,4-dimethylphenyl)-2-oxo-1,2,3,4-tetrahydroquinoline-7-sulfonamide], the half-maximal activity concentration (AC50) on hPK, M2 (setting [7]) was 0.46 µM. Moreover, the activation at 57 µM at hPK, M2 (setting [4]) is 110%.
The corresponding values for `Cc1ccc(NS(=O)(=O)c2cc3c(cc2Cl)NC(=O)CO3)cc1C` [Compound 37, 6-chloro-N-(3,4-dimethylphenyl)-3-oxo-3,4-dihydro-2H-benzo[b][1,4]oxazine-7-sulfonamide] are 0.58 µM and 95%.
The corresponding values for `Cc1ccc(NS(=O)(=O)c2cc3c(cc2-c2ccccc2)NC(=O)CO3)cc1C` [Compound 40, N-(3,4-dimethylphenyl)-3-oxo-6-phenyl-3,4-dihydro-2H-benzo[b][1,4]oxazine-7-sulfonamide] are 20.6 µM and 36%.
Turning to `Cc1c(Cl)cccc1NS(=O)(=O)c1cc2c(cc1F)NC(=O)CC2` [Compound 50, N-(3-chloro-2-methylphenyl)-7-fluoro-2-oxo-1,2,3,4-tetrahydroquinoline-6-sulfonamide], on hPK, M2 (setting [6]), the concentration at half-maximal activity (AC50) is 2.59 µM. Moreover, the Emax at hPK, M2 (setting [5]) was 118%.
`Cc1ccc(NS(=O)(=O)c2cc3c(cc2N(C)C)NC(=O)CC3)cc1C` [Compound 32, 7-(dimethylamino)-N-(3,4-dimethylphenyl)-2-oxo-1,2,3,4-tetrahydroquinoline-6-sulfonamide]: the AC50 on hPK, M2 (setting [7]) came to 0.52 µM. Also, at hPK, M2 (setting [4]), the activation at 57 µM stood at 106%.
As for `O=C1CCc2cc(S(=O)(=O)Nc3ccc(F)cc3)ccc2N1` [Compound 23, N-(4-fluorophenyl)-2-oxo-1,2,3,4-tetrahydroquinoline-6-sulfonamide], the AC50 at hPK, M2 (setting [8]) came to 10 µM. Also, the activation at 57 µM at hPK, M2 (setting [3]) was determined as 99%.
In the case of `Cc1cc(NS(=O)(=O)c2ccc3c(c2)CCC(=O)N3)ccc1Cl` [Compound 58, N-(4-chloro-3-methylphenyl)-2-oxo-1,2,3,4-tetrahydroquinoline-6-sulfonamide], the AC50 on hPK, M2 (setting [6]) was 0.41 µM. Also, the Emax on hPK, M2 (setting [5]) worked out at 96.5%.
On to `Cc1ccc(NS(=O)(=O)c2ccc3c(c2)N(C)C(=O)CO3)cc1C` [Compound 8, N-(3,4-dimethylphenyl)-4-methyl-3-oxo-3,4-dihydro-2H-benzo[b][1,4]oxazine-6-sulfonamide], for which the half-maximal activity concentration (AC50) on hPK, M2 (setting [1]) was 0.92 µM. Further, the activation at 57 µM on hPK, M2 (setting [2]) is 120%.

Source of the values: patent publication US9708267B2, “Activators of human pyruvate kinase” (The United States of America, as represented by the …, priority 2010, dated 2017).
